Source: patent US12662479B2 (Foghorn Therapeutics Inc., priority 2020, dated 2026)
Counter-ions that a name gives are not always drawn.

Key:
HiBit-BRM fusion protein = biological target: T1, HiBit-BRM fusion protein (Homo sapiens, UniProt P51531); test: HiBiT-BRM cell-based degradation assay (Nano-Glo HiBiT Lytic Detection, 24 h); settings: HeLa cells expressing HiBiT-BRM; for DC50: read-out: BRM HiBit Degradation IC50; for BRM HiBit Degradation Maximum measured: top dose 30 μM
T1 construct: expressed in transfected cells
T1 sequence (P51531 whole entry, the tested form may be a part): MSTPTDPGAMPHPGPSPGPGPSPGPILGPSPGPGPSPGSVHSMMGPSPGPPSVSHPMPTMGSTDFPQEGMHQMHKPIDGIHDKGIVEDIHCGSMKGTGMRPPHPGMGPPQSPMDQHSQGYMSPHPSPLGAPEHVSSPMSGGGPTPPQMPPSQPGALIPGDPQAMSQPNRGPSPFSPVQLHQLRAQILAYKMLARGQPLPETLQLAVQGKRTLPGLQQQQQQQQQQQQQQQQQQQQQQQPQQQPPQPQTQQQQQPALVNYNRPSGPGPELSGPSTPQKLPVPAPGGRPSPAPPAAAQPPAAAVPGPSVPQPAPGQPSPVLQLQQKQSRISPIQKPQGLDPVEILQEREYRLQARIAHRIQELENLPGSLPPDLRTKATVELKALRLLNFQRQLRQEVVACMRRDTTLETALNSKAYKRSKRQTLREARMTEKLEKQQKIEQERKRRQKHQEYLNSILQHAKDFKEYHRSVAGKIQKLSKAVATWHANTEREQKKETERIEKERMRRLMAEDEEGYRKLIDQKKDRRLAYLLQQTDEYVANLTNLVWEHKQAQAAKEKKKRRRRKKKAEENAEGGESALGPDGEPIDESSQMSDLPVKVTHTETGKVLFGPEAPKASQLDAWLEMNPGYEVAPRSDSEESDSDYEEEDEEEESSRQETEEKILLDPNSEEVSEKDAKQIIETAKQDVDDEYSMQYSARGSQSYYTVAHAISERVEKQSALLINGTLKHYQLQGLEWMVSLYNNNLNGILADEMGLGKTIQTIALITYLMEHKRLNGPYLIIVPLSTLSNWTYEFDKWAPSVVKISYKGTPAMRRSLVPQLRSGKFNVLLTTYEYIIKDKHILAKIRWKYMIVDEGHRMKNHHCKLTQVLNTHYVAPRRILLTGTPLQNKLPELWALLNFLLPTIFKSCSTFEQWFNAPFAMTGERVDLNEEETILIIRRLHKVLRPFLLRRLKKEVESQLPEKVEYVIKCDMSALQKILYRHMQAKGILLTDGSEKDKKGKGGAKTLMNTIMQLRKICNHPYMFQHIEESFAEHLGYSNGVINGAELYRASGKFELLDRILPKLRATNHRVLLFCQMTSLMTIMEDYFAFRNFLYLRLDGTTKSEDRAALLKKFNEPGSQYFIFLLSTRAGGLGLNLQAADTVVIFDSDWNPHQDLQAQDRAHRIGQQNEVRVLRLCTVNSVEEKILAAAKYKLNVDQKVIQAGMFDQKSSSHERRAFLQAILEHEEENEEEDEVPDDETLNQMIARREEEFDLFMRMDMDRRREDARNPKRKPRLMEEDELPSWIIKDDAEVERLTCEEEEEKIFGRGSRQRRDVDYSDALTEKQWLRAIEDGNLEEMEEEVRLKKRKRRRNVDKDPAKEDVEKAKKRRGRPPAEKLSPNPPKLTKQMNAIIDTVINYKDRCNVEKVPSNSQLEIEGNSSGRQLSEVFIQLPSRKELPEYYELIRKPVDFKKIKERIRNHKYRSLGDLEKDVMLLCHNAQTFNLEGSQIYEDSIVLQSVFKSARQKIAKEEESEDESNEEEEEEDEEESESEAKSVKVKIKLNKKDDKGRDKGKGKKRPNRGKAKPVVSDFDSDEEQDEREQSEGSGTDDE
In short: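 Luminescence from reconstituted NanoBiT luciferase in lysed HeLa HiBiT-BRM cells served as the measure of remaining BRM after 24 h treatment. Compounds were tested from 30 μM final downward in 3-fold steps. DMSO and 2 μM of a standard BRM/BRG1 degrader defined the scale limits.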

[1] = biological target: T2, HiBit-BRG1 fusion protein (Homo sapiens, UniProt P51532); test: HiBiT-BRG1 cell-based degradation assay (Nano-Glo HiBiT Lytic Detection, 24 h); settings: HeLa cells expressing HiBit-BRG1 and LgBit; for DC50: read-out: BRG1 HiBit Degradation IC50; for Dmax: HeLa, top dose 30 μM, read-out: BRG1 HiBit Degradation Maximum measured
T2 construct: expressed in transfected cells
T2 sequence (P51532 whole entry, the tested form may be a part): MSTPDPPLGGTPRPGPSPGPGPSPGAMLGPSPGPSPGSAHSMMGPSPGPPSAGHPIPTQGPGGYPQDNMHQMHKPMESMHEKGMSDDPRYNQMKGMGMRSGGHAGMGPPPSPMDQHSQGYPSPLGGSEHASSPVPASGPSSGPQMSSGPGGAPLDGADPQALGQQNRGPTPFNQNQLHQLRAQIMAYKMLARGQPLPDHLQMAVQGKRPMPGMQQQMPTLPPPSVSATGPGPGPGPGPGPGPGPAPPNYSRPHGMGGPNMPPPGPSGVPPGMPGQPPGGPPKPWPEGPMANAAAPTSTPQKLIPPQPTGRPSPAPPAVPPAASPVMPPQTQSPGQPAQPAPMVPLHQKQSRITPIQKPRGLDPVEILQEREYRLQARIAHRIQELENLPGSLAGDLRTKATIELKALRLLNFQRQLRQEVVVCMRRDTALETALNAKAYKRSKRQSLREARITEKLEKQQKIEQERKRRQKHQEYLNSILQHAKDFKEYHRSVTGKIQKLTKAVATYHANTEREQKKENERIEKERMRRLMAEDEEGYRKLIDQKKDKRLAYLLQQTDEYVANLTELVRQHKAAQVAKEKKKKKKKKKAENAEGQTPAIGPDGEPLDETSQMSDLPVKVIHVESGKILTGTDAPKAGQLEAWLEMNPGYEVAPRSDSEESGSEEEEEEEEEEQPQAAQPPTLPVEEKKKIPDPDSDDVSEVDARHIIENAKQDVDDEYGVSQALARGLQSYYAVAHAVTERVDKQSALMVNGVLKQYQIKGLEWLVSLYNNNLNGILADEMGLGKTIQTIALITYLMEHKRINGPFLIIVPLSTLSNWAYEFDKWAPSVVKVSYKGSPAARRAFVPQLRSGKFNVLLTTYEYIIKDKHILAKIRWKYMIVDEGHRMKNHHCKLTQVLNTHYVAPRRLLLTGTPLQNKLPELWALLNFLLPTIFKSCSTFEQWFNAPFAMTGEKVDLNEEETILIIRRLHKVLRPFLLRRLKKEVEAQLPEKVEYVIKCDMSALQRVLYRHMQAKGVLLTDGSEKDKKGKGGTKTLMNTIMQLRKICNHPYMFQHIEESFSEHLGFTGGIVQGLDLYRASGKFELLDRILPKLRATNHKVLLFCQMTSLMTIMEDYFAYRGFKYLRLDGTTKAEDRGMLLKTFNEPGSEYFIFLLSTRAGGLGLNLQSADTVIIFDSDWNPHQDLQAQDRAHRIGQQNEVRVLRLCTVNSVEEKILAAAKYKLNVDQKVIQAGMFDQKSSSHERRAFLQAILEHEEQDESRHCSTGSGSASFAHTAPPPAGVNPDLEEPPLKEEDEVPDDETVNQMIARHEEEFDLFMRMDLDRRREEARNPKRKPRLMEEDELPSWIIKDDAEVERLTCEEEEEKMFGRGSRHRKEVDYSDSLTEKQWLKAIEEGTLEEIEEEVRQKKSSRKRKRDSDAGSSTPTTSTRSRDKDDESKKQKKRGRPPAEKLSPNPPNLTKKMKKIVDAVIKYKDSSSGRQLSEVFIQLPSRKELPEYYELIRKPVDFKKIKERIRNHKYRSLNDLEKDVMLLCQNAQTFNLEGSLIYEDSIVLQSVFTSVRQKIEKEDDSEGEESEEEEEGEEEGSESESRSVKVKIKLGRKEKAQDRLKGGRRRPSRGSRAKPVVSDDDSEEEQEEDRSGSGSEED
In short: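 Stable HeLa line expressing HiBiT-BRG1 and LgBiT, seeded at 5000 cells/well; luminescence read after lytic Nano-Glo HiBiT reagent and 10 min shaking at RT. % degradation normalised between DMSO (high control) and 2 μM reference BRM/BRG1 degrader (low control).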

DC50 (HiBit-BRM fusion protein) [µM]	BRM HiBit Degradation Maximum measured (HiBit-BRM fusion protein)	DC50 [1] [µM]	Dmax [1] [%]	Compound
> 10	C (‘C’ = Maximum degradation <50%)	1 to 10	50 to 75	Cc1ncsc1-c1ccc(CNC(=O)[C@@H]2C[C@@H](O)CN2C(=O)[C@@H](NC(=O)COCCOCCNC(=O)c2ccc(COC[C@H](NC(=O)c3ccn(S(C)(=O)=O)c3)C(=O)Nc3nc(-c4ccccc4)cs3)cc2)C(C)(C)C)cc1 [Compound 188, (2S,4R)-4-hydroxy-1-[(2S)-2-[2-(2-[2-[(4-[[(2S)-2-[(1-methanesulfonylpyrrol-3-yl)formamido]-2-[(4-phenyl-1,3-thiazol-2-yl)carbamoyl]ethoxy]methyl]phenyl)formamido]ethoxy]ethoxy)acetamido]-3,3-dimethylbutanoyl]-N-[[4-(4-methyl-1,3-thiazol-5-yl)phenyl]methyl]pyrrolidine-2-carboxamide]
> 10	C (‘C’ = Maximum degradation <50%)	> 10	< 50	Cc1ncsc1-c1ccc(CNC(=O)[C@@H]2C[C@@H](O)CN2C(=O)[C@@H](NC(=O)CCCC(=O)NCCOc2cc(-c3cccc(-c4csc(NC(=O)CNC(=O)c5ccn(S(C)(=O)=O)c5)n4)c3)ccn2)C(C)(C)C)cc1 [Compound 77, N1-((S)-1-((2S,4R)-4-hydroxy-2-((4-(4-methylthiazol-5-yl)benzyl)carbamoyl)pyrrolidin-1-yl)-3,3-dimethyl-1-oxobutan-2-yl)-N5-(2-((4-(3-(2-(2-(1-(methylsulfonyl)-1H-pyrrole-3-carboxamido)acetamido)thiazol-4-yl)phenyl)pyridin-2-yl)oxy)ethyl)glutaramide]
> 10	C (‘C’ = Maximum degradation <50%)	> 10	< 50	Cc1ncsc1-c1ccc(CNC(=O)[C@@H]2C[C@@H](O)CN2C(=O)[C@@H](NC(=O)CCCCC(=O)NCCCC[C@H](NC(=O)c2ccn(S(C)(=O)=O)c2)C(=O)Nc2nc(-c3ccccc3)cs2)C(C)(C)C)cc1 [Compound 264, N-[(2S)-1-[(2S,4R)-4-hydroxy-2-([[4-(4-methyl-1,3-thiazol-5-yl)phenyl]methyl]carbamoyl)pyrrolidin-1-yl]-3,3-dimethyl-1-oxobutan-2-yl]-N-[(5S)-5-[(1-methanesulfonylpyrrol-3-yl)formamido]-5-[(4-phenyl-1,3-thiazol-2-yl)carbamoyl]pentyl]hexanediamide]
> 10	C (‘C’ = Maximum degradation <50%)	1 to 10	50 to 75	CS(=O)(=O)n1ccc(C(=O)NCC(=O)Nc2nc(-c3cccc(-c4ccnc(C5(C(=O)NCCOCCOCCNc6cccc7c6C(=O)N(C6CCC(=O)NC6=O)C7=O)CC5)c4)c3)cs2)c1 (centres unmarked) [Compound 11, N-[2-[[4-[3-[2-[1-[2-[2-[2-[[2-(2,6-dioxo-3-piperidyl)-1,3-dioxo-isoindolin-4-yl]amino]ethoxy]ethoxy]ethylcarbamoyl]cyclopropyl]-4-pyridyl]phenyl]thiazol-2-yl]amino]-2-oxo-ethyl]-1-methylsulfonylpyrrole-3-carboxamide]
> 10	C (‘C’ = Maximum degradation <50%)	> 10	< 50	Cc1ncsc1-c1ccc(CNC(=O)[C@@H]2C[C@@H](O)CN2C(=O)[C@@H](NC(=O)CCCCCCC(=O)NCCCC[C@H](NC(=O)c2ccn(S(C)(=O)=O)c2)C(=O)Nc2nc(-c3ccccc3)cs2)C(C)(C)C)cc1 [Compound 266, N′-[(2S)-1-[(2S,4R)-4-hydroxy-2-([[4-(4-methyl-1,3-thiazol-5-yl)phenyl]methyl]carbamoyl)pyrrolidin-1-yl]-3,3-dimethyl-1-oxobutan-2-yl]-N-[(5S)-5-[(1-methanesulfonylpyrrol-3-yl)formamido]-5-[(4-phenyl-1,3-thiazol-2-yl)carbamoyl]pentyl]octanediamide]
> 10	C (‘C’ = Maximum degradation <50%)	> 10	< 50	CS(=O)(=O)n1ccc(C(=O)NCC(=O)Nc2nc(-c3cccc(-c4ccn(CC(=O)NCCCCCCCCNC(=O)COc5cccc6c5C(=O)N(C5CCC(=O)NC5=O)C6=O)n4)c3)cs2)c1 (centres unmarked) [Compound 5, N-[2-[[4-[3-[1-[2-[8-[[2-[2-(2,6-dioxo-3-piperidyl)-1,3-dioxoisoindolin-4-yl]oxyacetyl]amino]octylamino]-2-oxo-ethyl]pyrazol-3-yl]phenyl]thiazol-2-yl]amino]-2-oxo-ethyl]-1-methylsulfonyl-pyrrole-3-carboxamide]
> 10	C (‘C’ = Maximum degradation <50%)	> 10	< 50	Cc1ncsc1-c1ccc(CNC(=O)[C@@H]2C[C@@H](O)CN2C(=O)[C@@H](NC(=O)NCc2cccc(-c3cccc(-c4csc(NC(=O)CNC(=O)c5ccn(S(C)(=O)=O)c5)n4)c3)c2)C(C)(C)C)cc1 [Compound 158, (2S,4R)-4-hydroxy-1-[(2S)-2-[([[3-(2-[2-[(1-methanesulfonylpyrrol-3-yl)formamido]acetamido]-1,3-thiazol-4-yl)-[1,1-biphenyl]-3-yl]methyl]carbamoyl)amino]-3,3-dimethylbutanoyl]-N-[[4-(4-methyl-1,3-thiazol-5-yl)phenyl]methyl]pyrrolidine-2-carboxamide]
> 10	C (‘C’ = Maximum degradation <50%)	> 10	< 50	CN(CCNC(=O)CN(C)c1cc(-c2cccc(-c3csc(NC(=O)CNC(=O)c4ccn(S(C)(=O)=O)c4)n3)c2)ccn1)CCNc1cccc2c1C(=O)N(C1CCC(=O)NC1=O)C2=O (centres unmarked) [Compound 21, N-(2-((4-(3-(2-((2-((2-((2-((2-(2,6-dioxopiperidin-3-yl)-1,3-dioxoisoindolin-4-yl)amino)ethyl)(methyl)amino)ethyl)amino)-2-oxoethyl)(methyl)amino)pyridin-4-yl)phenyl)thiazol-2-yl)amino)-2-oxoethyl)-1-(methylsulfonyl)-1H-pyrrole-3-carboxamide]

Compound	DC50 (HiBit-BRM fusion protein) [µM]	BRM HiBit Degradation Maximum measured (HiBit-BRM fusion protein)	DC50 [1] [µM]	Dmax [1] [%]
Cc1ncsc1-c1ccc(CNC(=O)[C@@H]2C[C@@H](O)CN2C(=O)[C@@H](NC(=O)CCN2CCC(C(=O)NCc3cccc(-c4cccc(-c5csc(NC(=O)CNC(=O)c6ccn(S(C)(=O)=O)c6)n5)c4)c3)CC2)C(C)(C)C)cc1 [Compound 155, 1-(2-[[(2S)-1-[(2S,4R)-4-hydroxy-2-([[4-(4-methyl-1,3-thiazol-5-yl)phenyl]methyl]carbamoyl)pyrrolidin-1-yl]-3,3-dimethyl-1-oxobutan-2-yl]carbamoyl]ethyl)-N-[[3-(2-[2-[(1-methanesulfonylpyrrol-3-yl)formamido]acetamido]-1,3-thiazol-4-yl)-[1,1-biphenyl]-3-yl]methyl]piperidine-4-carboxamide formate]	> 10	C (‘C’ = Maximum degradation <50%)	> 10	
CS(=O)(=O)n1ccc(C(=O)N[C@@H](COCCCC(=O)NCCNc2ccc3c(c2)C(=O)N(C2CCC(=O)NC2=O)C3=O)C(=O)Nc2nc(-c3ccccc3)cs2)c1 (stereo partly drawn) [Compound 185, N-((2S)-3-(4-((2-((2-(2,6-dioxopiperidin-3-yl)-1,3-dioxoisoindolin-5-yl)amino)ethyl)amino)-4-oxobutoxy)-1-oxo-1-((4-phenylthiazol-2-yl)amino)propan-2-yl)-1-(methylsulfonyl)-1H-pyrrole-3-carboxamide]	> 10	C (‘C’ = Maximum degradation <50%)	> 10	< 50
CS(=O)(=O)n1ccc(C(=O)N[C@@H](CCOCCCC(=O)N2CCC3(CC2)CC(Oc2ccc4c(c2)C(=O)N(C2CCC(=O)NC2=O)C4=O)C3)C(=O)Nc2nc(-c3ccccc3)cs2)c1 (stereo partly drawn) [Compound 262, (2S)-4-[4-(2-[[2-(2,6-dioxopiperidin-3-yl)-1,3-dioxoisoindol-5-yl]oxy]-7-azaspiro[3.5]nonan-7-yl)-4-oxobutoxy]-2-[(1-methanesulfonylpyrrol-3-yl)formamido]-N-(4-phenyl-1,3-thiazol-2-yl)butanamide]	> 10	C (‘C’ = Maximum degradation <50%)	> 10	< 50
Cc1ncsc1-c1ccc(CNC(=O)[C@@H]2C[C@@H](O)CN2C(=O)[C@@H](NC(=O)CCN2CC(C(=O)NCc3cccc(-c4cccc(-c5csc(NC(=O)CNC(=O)c6ccn(S(C)(=O)=O)c6)n5)c4)c3)C2)C(C)(C)C)cc1 [Compound 154, (2S,4R)-4-hydroxy-1-[(2S)-2-[3-[3-([[3-(2-[2-[(1-methanesulfonylpyrrol-3-yl)formamido]acetamido]-1,3-thiazol-4-yl)-[1,1-biphenyl]-3-yl]methyl]carbamoyl)azetidin-1-yl]propanamido]-3,3-dimethylbutanoyl]-N-[[4-(4-methyl-1,3-thiazol-5-yl)phenyl]methyl]pyrrolidine-2-carboxamide formate]	> 10	C (‘C’ = Maximum degradation <50%)	> 10	
Cc1ncsc1-c1ccc(CNC(=O)[C@@H]2C[C@@H](O)CN2C(=O)[C@@H](NC(=O)CCCCCCCNC(=O)CN(C)c2cc(-c3cccc(-c4csc(NC(=O)CNC(=O)c5ccn(S(C)(=O)=O)c5)n4)c3)ccn2)C(C)(C)C)cc1 [Compound 88]	< 0.1	B (‘B’ = Maximum degradation ≥50% and ≤75%)	< 0.1	50 to 75
